“And” between values parts separate entries of the source, which are not always exact repeats. Identical values can stand only once.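 Briefly, cells in 96-well plates were exposed to five compound concentrations for 48 h, and endpoints were estimated by linear interpolation. GI50: concentration for 50% inhibition of growth. TGI is the concentration that stops growth completely.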
Experiments:
Test in all cases: growth of human tumour cells (NCI), 48 h
[1] = tested on: DLD-1 colon
[2] = tested on: HCT-116 colon
[3] = tested on: HCT-15 colon
[4] = tested on: KM20L2 colon
[5] = tested on: NCI-H522 lung
[6] = tested on: OVCAR-5 ovarian
[7] = tested on: SK-OV-3 ovarian
[8] = tested on: SNB-75 CNS
[9] = tested on: UACC-62 melanoma
[10] = tested on: MDA-MB-231 breast

Compound | TGI [1] [µM] | TGI [2] [µM] | TGI [3] [µM] | TGI [4] [µM] | TGI [5] [µM] | TGI [6] [µM] | TGI [7] | TGI [8] | TGI [9] | GI50 [1] [µM] | GI50 [2] [µM] | GI50 [3] [µM] | GI50 [4] [µM] | GI50 [5] [µM] | GI50 [6] [µM] | GI50 [7] [µM] | GI50 [8] [µM] | GI50 [9] [µM] | TGI [10] [µM] | GI50 [10] [µM]
CN(C)C(=O)c1ccc([N+](=O)[O-])cc1 | > 100 | > 100 | > 100 | > 100 | > 100 | > 100 | > 100 µM | > 100 µM | > 100 µM |  |  |  |  |  |  |  |  |  |  | 
CCc1cccc(C)c1NC(=O)C1=C(C)NC(C)=C(C(=O)Nc2c(C)cccc2CC)C1c1ccc2c(c1)OCO2 | 47.5 |  |  | 62.8 | 30.1 | 44.5 | 92.5 µM | 91.9 µM |  |  |  |  |  |  |  |  |  |  |  | 
CC1(C)CC2CC(CC(C)(C)C2=O)C1=O | > 100 | > 100 | > 100 | > 100 |  | > 100 | > 100 µM | > 100 µM | > 100 µM |  |  |  |  |  |  |  |  |  |  | 
C[CH2][Sn]([CH2]C)([O]C(=O)c1ccccc1F)[O][Sn]([CH2]C)([CH2]C)[O]C(=O)c1ccccc1F | 54.7 | > 70.9 | > 62.8 | > 77.9 | 2.61 | > 71.4 | > 90.3 µM | > 57.8 µM | 35.1 µM | 18.4 | 38 | 34.3 | > 51.2 | 1.24 | > 49.3 | > 50.5 | 25.1 | 18.1 |  | 
O=C1C(c2cnc3ccccc3n2)=C(O)c2ccccc21 | > 100 | > 100 | 9.75 | > 100 | > 100 | > 100 | > 46.4 µM | 79.9 µM | > 100 µM |  |  |  |  |  |  |  |  |  | > 100 | 
COc1cccc(NC(=O)CC(=O)N2N=C(n3ccc4ccccc43)CC2c2ccccc2)c1 (stereo not drawn) | > 100 | > 100 | > 100 | > 100 | > 100 | > 100 | > 100 µM | > 100 µM | > 100 µM |  |  |  |  |  |  |  |  |  |  | 
CCCN(CCC)C(=O)C(=O)c1c(N)[nH]n(-c2ccccc2)c1=O | > 100 | > 100 | > 100 | > 100 | > 100 | > 100 | > 100 µM |  | > 100 µM |  |  |  |  |  |  |  |  |  |  | 
CCOC(=O)/C(O)=C(/C(=O)OC)c1ccc(Cl)cc1 | > 100 |  | > 100 | > 100 |  | > 100 | > 100 µM | > 100 µM | > 100 µM |  |  |  |  |  |  |  |  |  |  | 
COC(=O)C(CC1=C(O)Nc2ccccc2N1)/C(=N/NC(N)=O)C(=O)Nc1ccccc1C (stereo not drawn) | > 100 | 36.8 | 34.1 | > 100 | 33.9 | > 100 | > 100 µM | > 100 µM | > 100 µM |  |  |  |  |  |  |  |  |  |  | 
COc1cccc(NC(=O)CC(=O)N2N=C(N3c4ccccc4Sc4ccccc43)CC2c2ccccc2)c1 (stereo not drawn) | > 100 | > 100 | > 100 | > 100 |  | > 100 | > 100 µM | > 100 µM | > 100 µM |  |  |  |  |  |  |  |  |  |  | 
O=C(O)C(CS)NCc1c2ccccc2nc2ccccc12 (stereo not drawn) | > 100 | > 100 | > 100 | > 100 | 88 | > 100 | > 100 µM | > 100 µM |  |  |  |  |  |  |  |  |  |  |  | 
O=c1c(O)c(-c2ccc(O)c(O)c2)oc2cc(O)cc(O)c12 | > 100 | > 100 | > 100 | > 100 | > 100 | > 100 | 68.5 µM and > 100 µM | 39.2 µM and > 100 µM | 25.5 µM and > 100 µM |  | 16.9 | 10.1 |  | 5.54 | 30.2 | 18.3 | 4.42 | 4.74 | > 100 | 9.36
COc1ccc(COC2CC(OC)OC(C)C2OC(=O)c2ccccc2)cc1 (stereo not drawn) | > 91.8 | > 84 | > 59.5 | 32.9 | > 93.5 | > 94.7 | > 100 µM | > 100 µM | > 100 µM |  |  |  |  |  |  |  |  |  |  | 
O=S(=O)(/C=C/CS(=O)(=O)c1ccccc1)c1ccccc1 | > 100 | 57.1 | 45.6 | 74.2 |  | > 100 | 87 µM | > 100 µM | 52.2 µM |  |  |  |  |  |  |  |  |  |  | 
COc1cc2c(cc1OC)[C@@H](Nc1ccc(F)cc1)C1COC(=O)[C@@H]1C2c1cc(OC)c(O)c(OC)c1 (stereo partly drawn) | 40.5 | > 100 | > 32.1 | > 54.2 | 18.9 | > 100 | 7 µM | > 48 µM | 19.9 µM |  |  |  |  |  |  |  |  |  |  | 
CNC(=O)OCc1c2ccncc2c(C)c2c1[nH]c1ccc(OC)cc12 |  | 0.777 | > 100 | 0.799 | 1.13 | 0.808 | 0.866 µM |  | 0.454 µM |  |  |  |  |  |  |  |  |  |  | 
O=C1/C(=N\O)S(=O)(=O)c2ccccc21 | > 100 | > 100 | > 100 | > 100 | > 100 | > 100 | > 100 µM | > 100 µM | > 100 µM |  |  |  |  |  |  |  |  |  |  | 
CC(=O)[CH-]C(=O)c1ccccc1.CC(=O)[CH-]C(=O)c1ccccc1.CC(=O)[CH-]C(=O)c1ccccc1.[In+3] | > 100 | > 100 |  | > 100 | 59.8 | > 100 | 70.9 µM | > 100 µM | > 100 µM | 24.4 | 9.32 |  | 39.4 | 21.8 | 42.7 | 29.2 | 19.8 | 32.9 |  | 
O=C(O)c1nc(-c2ccc(Cl)c(Cl)c2)nc2ccc(Cl)cc12 | > 100 | > 100 | > 100 | > 100 |  | > 100 | 43.3 µM | 35.4 µM | > 100 µM |  |  |  |  |  |  |  |  |  |  | 
CC(C)(c1ccccc1)c1ccc(Oc2ccc(C#N)c(C#N)c2)cc1 | > 100 | > 100 |  | > 100 | 84.8 | > 100 | > 100 µM |  | > 100 µM | > 100 |  |  | > 100 | 16.9 | > 100 | > 100 |  | > 100 |  | 
CCc1ccccc1NC(=O)/C(N=O)=C(/C)O | > 100 | > 100 | > 100 | > 100 | > 100 |  | > 100 µM | > 100 µM | > 100 µM |  |  |  |  |  |  |  |  |  |  | 
O=C(NC(=Nc1ccccc1)SCCSC(=Nc1ccccc1)NC(=O)c1cccs1)c1cccs1 | > 100 | > 100 | > 100 | > 100 | 63.6 | > 100 |  | 99.8 µM | > 100 µM |  |  |  |  |  |  |  |  |  |  | 
O=C(N/C(=C\c1ccc(/C=C(\NC(=O)c2ccccc2)c2nc3ccccc3[nH]2)cc1)c1nc2ccccc2[nH]1)c1ccccc1 | > 100 | > 100 | > 100 | > 100 | > 100 | > 100 | > 100 µM | > 100 µM | > 100 µM |  |  |  |  |  |  |  |  |  |  | 
COc1ccc(CC2(Cc3ccc(OC)cc3)CCOC2=O)cc1 | > 100 | > 100 |  |  | > 100 | > 100 | > 100 µM | 48.9 µM | > 100 µM |  |  |  |  |  |  |  |  |  |  | 
CCOc1ccc(NC(=O)C(=O)C(C(=O)c2ccc3ccccc3c2)C2OC(=O)c3ccccc32)cc1 (stereo not drawn) | 30.1 | 35.1 | 43.4 | > 100 | 31.6 | 84.9 | > 100 µM | 64.9 µM | 27.2 µM |  |  |  |  |  |  |  |  |  |  | 
